# Measured values from paper PMC3359661, “FK228 Analogues Induce Fetal Hemoglobin in Human Erythroid Progenitors” (Anemia, 2012).
# Several values for one entry are separate records, joined by “and”; a condition that tells them apart may be missing. Identical values can stand only once.
# Assays:
# [1] = system: γ-globin promoter activity in KU812-γF/βR stable lines; assay: KU812 dual-luciferase reporter stable lines (μLCRβprRluc AγprFluc), γ-globin promoter activity; type: cell-based, human; conditions: 48 hr; for Fold change (γ/γ + 2β): untreated normalized to one
# Description: KU812 stable cell lines were created by co-transfecting wild-type KU812 cells with pEGFP-NI (G418 selectable marker) and theμLCRβ prRluc ^A γ prFluc dual-reporter a kind gifts from Dr. George Stamatoyannopoulos (University of Washington). […] Likewise, 1.4 kb of human Aγ-globin promoter was inserted upstream of firefly luciferase to create ^A γ prFluc. The μLCR (locus control region), Pβ prRluc, and ^A γ prFluc fragments were subsequently cloned into the mammalian vector, pRL-null.
# After 72 hr, G418 was added at a concentration of […] for 3 days then maintained under selection pressure indefinitely at a concentration of […]. KU812 stable lines were treated with the various drugs at the same concentrations described above. FK228 and analogues were screened at concentrations between 1–1000 nM for 48 hr and cell toxicity was monitored by 2% Trypan blue exclusion. The effect of drug treatments on γ-globin and β-globin promoter activity was monitored by luciferase assay.
# Luciferase activity was monitored under the different experimental conditions using the Dual Luciferase Assay Reporter System (Promega, Madison, WI). The activity of firefly luciferase represents γ-globin promoter activity (γF), while the renilla luciferase is the read-out for β-globin promoter activity (βR). The β-globin promoter was strategically cloned between the LCR and γ-globin promoter to increase β expression, while simultaneously increasing the sensitivity of detection of γ-globin gene inducers.
# After drug treatments, KU812 stable cells were washed with 1X phosphate buffered saline and lysed in 1X Passive Lysis Buffer for 15 min, then protein extracts were added to the Luciferase Assay Reagent II and firefly luciferase activity quantified in a Turner Designs TD-20/20 luminometer (Sunnyvale, CA). To measure βR activity, Stop & Glo Reagents was added to measure the renilla luciferase activity. Total protein was determined by Bradford assay on a Beckman DU 640 spectrophotometer (Chaska, MN) and luciferase activity was corrected for total protein.
# Subsequently, three independent dual-luciferase reporter KU812 stable cell lines were established to analyze the ability FK228 analogues to induce γ-globin promoter activity without an effect on β-globin transcription. […] Since the firefly luciferase gene (γF) has approximately […] luminescence than the renilla gene (βR), the renilla activity was multiplied by two to adjust for the difference in luminescence yielding the γ/γ+2β final measurement. The FK228 analogues were examined at concentrations ranging from 1–1000 nM in the three stable lines. After 48-hour treatments, cells were harvested and protein isolated for luciferase activity using the Dual Luciferase Reporter Assay.
# [2] = system: HbF levels in primary erythroid cells; assay: HbF ELISA in primary erythroid cells; type: cell-based, human
# Protocol: The two-phase liquid culture system was established as previously published by Fibach et al. using buffy coat mononuclear cells, purchased from Carter Blood Care (Fort Worth, TX) in accordance with the guidelines of the Institutional Review Board at the University of Texas at Dallas. During phase 1, cells were grown in IMDM medium with 30% fetal bovine serum and 50 ng/mL each of the granulocyte-monocyte colony-stimulating factor, Interleukin-3, and stem cell factor. Subsequently, phase 2 was initiated on day 7 with the addition of erythropoietin (2 U/mL) and stem cell factor (50 ng/mL). The cells were treated on Day 11 with the different test compounds and harvested on Day 14 (72 hr incubation).
# Total hemoglobin was quantified using 20 μL of protein extract from one million KU812 cells mixed with 5 mL of Drabkin's reagent (Sigma); then cyanmethemoglobin was measured at the 540 nm wavelength. HbF levels were quantified using the human Hemoglobin F ELISA Quantitation Kit (Bethyl Laboratory, Montgomery, TX). Briefly, 96-well plates were coated with sheep anti-human HbF antibody (1 mg/mL). After blocking with 1% bovine serum albumin, horse radish peroxidase-conjugated secondary antibody (1 mg/mL) was added. Raw data were analyzed using GraphPad PRISM (GraphPad Software, Inc., La Jolla, CA) and HbF levels were calculated as a ratio of total hemoglobin corrected for total protein (HbF/total Hb/total protein).
# [3] = system: γ-promoter activity in GM979 stable line; conditions: μLCRβprRluc AγprFluc GM979 stable line; cited from earlier work
# Description: Many published studies have shown that primary erythroid cells remain the best system to confirm HbF-inducing agents and to serve as a predictor of efficacy in vivo. Human burst forming units—erythroid cells in clonogenic assays or erythroid progenitors grown in liquid culture [39, 41]—have been used to evaluate putative HbF inducers. However, these assays are not easily adaptable to large-scale drug screening, thus immortalized cell lines have been investigated for this purpose.
substance,measurement,setting,value
FK228,γ/γ + 2β Mean,"[1]; Line 1, firefly (γ) / renilla (β) luciferase corrected for total protein, mean, conc: Cys 10 mM, Hemin 50 μM, SAHA 2000 nM, FK228 1.5 nM, 1127Ox 1000 nM, JMA1 1.5 nM, JMA2 1.0 nM, JMA12 1000 nM, JMA26 500 nM, JMA33 1000 nM, JMA112 100 nM, untreated 0.0402",0.1197
same,Fold change (γ/γ + 2β),"[1]; Line 1, concentrations as in E1",2.975
same,γ/γ + 2β Mean,"[1]; Line 2, concentrations as in E1, untreated 0.1573",0.6167
same,Fold change (γ/γ + 2β),"[1]; Line 2, concentrations as in E1",3.929
same,γ/γ + 2β Mean,"[1]; Line 3, concentrations as in E1, untreated 0.0721",0.1583
same,Fold change (γ/γ + 2β),"[1]; Line 3, concentrations as in E1",2.194
same,Fold change in HbF levels,"[2]; relative to untreated = 1, concentrations as in E7",2.4 fold and 2.454 fold
same,"Fetal hemoglobin quantification, Mean (HbF/total Hb/total protein)","[2]; treated Day 11, harvested Day 14, conc: Cys 10 mM, Hemin 50 μM, SAHA 2000 nM, FK228 1.5 nM, JMA1 1.5 nM, JMA2 1.0 nM, JMA26 500 nM, JMA33 1000 nM, untreated 0.683",1.676
same,concentration inducing γ-promoter activity,[3],1 nM
